# Measurements published in patent US10787452B2 (Vertex Pharmaceuticals Incorporated, priority 2012, dated 2020).
# Test system: HCT116 colorectal cancer cells
# Experiment: Cisplatin sensitization assay (96 h cell viability MTS);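 further: compound concentration needed to lower the Cisplatin-alone IC50 by a set fold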
# Type: cell-based
# Conditions: 96 h MTS, compound plus Cisplatin
# Method in brief: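 Viability was measured by MTS after 96 h co-exposure of HCT116 colorectal cells to a full-matrix dilution grid of compound and cisplatin (2-fold steps, highest final concentration 10 μM, added together). Plates were kept at 37 °C in 5% CO2, and the MTS reagent was incubated for 1 h before reading.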
row,Compound,Cisplatin Sensitization Assay
1,"Cc1ccnn1-c1ccncc1NC(=O)c1c(N)nn2cc(F)cnc12 [I-N-223, 2-amino-6-fluoro-N-(4-(5-methyl-1H-pyrazol-1-yl)pyridin-3-yl)pyrazolo[1,5-a]pyrimidine-3-carboxamide]",++ (Compounds with a Cisplatin sensitization value >0.02 μM but <0.2 μM are marked with “++.”)
2,"CNC(=O)C1CCN(c2c(F)cncc2NC(=O)c2c(N)nn3cc(F)cnc23)CC1 [I-G-33, 2-amino-6-fluoro-N-(5-fluoro-4-(4-(methylcarbamoyl)piperidin-1-yl)pyridin-3-yl)pyrazolo[1,5-a]pyrimidine-3-carboxamide]",+++ (Compounds with a Cisplatin sensitization value of <0.02 μM are marked with “+++.”)
3,"C[N+]1([O-])CCc2c(cncc2NC(=O)c2c(N)nn3cc(F)cnc23)C1 (stereo not drawn) [I-C-9, 5-(2-amino-6-fluoropyrazolo[1,5-a]pyrimidine-3-carboxamido)-2-methyl-1,2,3,4-tetrahydro-2,7-naphthyridine 2-oxide]",+ (Compounds with a Cisplatin sensitization value >0.2 μM but <5 μM are marked with “+.”)
4,"N#CCc1cnc2c(C(=O)Nc3cnccc3OC3CCNCC3)c(N)nn2c1 [I-O-84, 2-amino-6-(cyanomethyl)-N-(4-(piperidin-4-yloxy)pyridin-3-yl)pyrazolo[1,5-a]pyrimidine-3-carboxamide]",++ (Compounds with a Cisplatin sensitization value >0.02 μM but <0.2 μM are marked with “++.”)
5,"Nc1nn2cc(F)cnc2c1C(=O)Nc1cncc(C2CC2)c1N1CCN([C@@H]2CCOC2)CC1 [I-N-119, (R)-2-amino-N-(5-cyclopropyl-4-(4-(tetrahydrofuran-3-yl)piperazin-1-yl)pyridin-3-yl)-6-fluoropyrazolo[1,5-a]pyrimidine-3-carboxamide]",++ (Compounds with a Cisplatin sensitization value >0.02 μM but <0.2 μM are marked with “++.”)
6,"Nc1nn2cc(F)cnc2c1C(=O)Nc1cnccc1-c1cccnc1F [I-C-35, 2-amino-6-fluoro-N-(2-fluoro-[3,4′-bipyridin]-3′-yl)pyrazolo[1,5-a]pyrimidine-3-carboxamide]",+++ (Compounds with a Cisplatin sensitization value of <0.02 μM are marked with “+++.”)
7,"CC1(C)CN(C(=O)C2CCN(c3c(F)cncc3NC(=O)c3c(N)nn4cc(F)cnc34)CC2)CCN1 [I-G-27, 2-amino-N-(4-(4-(3,3-dimethylpiperazine-1-carbonyl)piperidin-1-yl)-5-fluoropyridin-3-yl)-6-fluoropyrazolo[1,5-a]pyrimidine-3-carboxamide]",++ (Compounds with a Cisplatin sensitization value >0.02 μM but <0.2 μM are marked with “++.”)
8,"Nc1nn2cc(F)cnc2c1C(=O)Nc1cnccc1N1CCC(C(=O)N2CCC2)CC1 [I-G-77, 2-amino-N-(4-(4-(azetidine-1-carbonyl)piperidin-1-yl)pyridin-3-yl)-6-fluoropyrazolo[1,5-a]pyrimidine-3-carboxamide]",+++ (Compounds with a Cisplatin sensitization value of <0.02 μM are marked with “+++.”)
9,"CN(C)C(=O)C1CCN(c2ccncc2NC(=O)c2c(N)nn3cc(F)cnc23)CC1 [I-G-2, 2-amino-N-(4-(4-(dimethylcarbamoyl)piperidin-1-yl)pyridin-3-yl)-6-fluoropyrazolo[1,5-a]pyrimidine-3-carboxamide]",+++ (Compounds with a Cisplatin sensitization value of <0.02 μM are marked with “+++.”)
10,"CN1CCN(CC2CCN(c3c(F)cncc3NC(=O)c3c(N)nn4cc(F)cnc34)CC2)CC1=O [I-N-171, 2-amino-6-fluoro-N-(5-fluoro-4-(4-((4-methyl-3-oxopiperazin-1-yl)methyl)piperidin-1-yl)pyridin-3-yl)pyrazolo[1,5-a]pyrimidine-3-carboxamide]",+++ (Compounds with a Cisplatin sensitization value of <0.02 μM are marked with “+++.”)
11,"N#C[C@@H]1CCN(c2c(Cl)cncc2NC(=O)c2c(N)nn3cc(F)cnc23)C1 [I-N-285, (R)-2-amino-N-(5-chloro-4-(3-cyanopyrrolidin-1-yl)pyridin-3-yl)-6-fluoropyrazolo[1,5-a]pyrimidine-3-carboxamide]",++ (Compounds with a Cisplatin sensitization value >0.02 μM but <0.2 μM are marked with “++.”)
12,"CN1CCOC[C@@H]1c1ccc(-c2ccncc2NC(=O)c2c(N)nn3cc(F)cnc23)cc1 [I-C-66, (S)-2-amino-6-fluoro-N-(4-(4-(4-methylmorpholin-3-yl)phenyl)pyridin-3-yl)pyrazolo[1,5-a]pyrimidine-3-carboxamide]",+++ (Compounds with a Cisplatin sensitization value of <0.02 μM are marked with “+++.”)
13,"CN1CCN(C(=O)C2(C)CCN(c3c(F)cncc3NC(=O)c3c(N)nn4cc(F)cnc34)CC2)CC1 [I-G-54, 2-amino-6-fluoro-N-(5-fluoro-4-(4-methyl-4-(4-methylpiperazine-1-carbonyl)piperidin-1-yl)pyridin-3-yl)pyrazolo[1,5-a]pyrimidine-3-carboxamide]",+++ (Compounds with a Cisplatin sensitization value of <0.02 μM are marked with “+++.”)
14,"N#CCc1cnc2c(C(=O)Nc3cnccc3OC3CCOCC3)c(N)nn2c1 [I-O-30, 2-amino-6-(cyanomethyl)-N-(4-((tetrahydro-2H-pyran-4-yl)oxy)pyridin-3-yl)pyrazolo[1,5-a]pyrimidine-3-carboxamide]",+++ (Compounds with a Cisplatin sensitization value of <0.02 μM are marked with “+++.”)
15,"Cc1cncc(NC(=O)c2c(N)nn3cc(F)cnc23)c1N1CCC(C(=O)N2CCNCC2)CC1 [I-G-56, 2-amino-6-fluoro-N-(5-methyl-4-(4-(piperazine-1-carbonyl)piperidin-1-yl)pyridin-3-yl)pyrazolo[1,5-a]pyrimidine-3-carboxamide]",+++ (Compounds with a Cisplatin sensitization value of <0.02 μM are marked with “+++.”)
16,"Nc1nn2cc(F)cnc2c1C(=O)Nc1cncc(F)c1N1CCN(C(=O)C2CN3CCC2CC3)CC1 (stereo not drawn) [I-N-130, 2-amino-6-fluoro-N-(5-fluoro-4-(4-(quinuclidine-3-carbonyl)piperazin-1-yl)pyridin-3-yl)pyrazolo[1,5-a]pyrimidine-3-carboxamide]",++ (Compounds with a Cisplatin sensitization value >0.02 μM but <0.2 μM are marked with “++.”)
17,"Nc1nn2cc(Cl)cnc2c1C(=O)Nc1cnccc1OC1CCCOC1 (stereo not drawn) [I-O-65, 2-amino-6-chloro-N-(4-((tetrahydro-2H-pyran-3-yl)oxy)pyridin-3-yl)pyrazolo[1,5-a]pyrimidine-3-carboxamide]",+++ (Compounds with a Cisplatin sensitization value of <0.02 μM are marked with “+++.”)
18,"Nc1nn2cc(F)cnc2c1C(=O)Nc1cnccc1O[C@H]1CN2CCC1CC2 [I-O-5, (R)-2-amino-6-fluoro-N-(4-(quinuclidin-3-yloxy)pyridin-3-yl)pyrazolo[1,5-a]pyrimidine-3-carboxamide]",+++ (Compounds with a Cisplatin sensitization value of <0.02 μM are marked with “+++.”)
